From PubChem BioAssay (NCI)
Values joined by “and” are separate entries in the source; they are usually repeats but may differ in a detail not shown here. Equal entries are not always repeated.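 Assay format: 96-well plates, 48-hour exposure. At the GI50, growth is halved. The concentration for full growth arrest is given as TGI.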

Legend:
Experiment in all cases: NCI tumour cell line growth inhibition, 48 h
LOX IMVI melanoma = tested on: LOX IMVI melanoma
UACC-257 melanoma = tested on: UACC-257 melanoma
HOP-92 NSCLC = tested on: HOP-92 NSCLC
SK-MEL-28 melanoma = tested on: SK-MEL-28 melanoma
MOLT-4 leukemia = tested on: MOLT-4 leukemia
U251 CNS = tested on: U251 CNS
EKVX NSCLC = tested on: EKVX NSCLC
SK-MEL-2 melanoma = tested on: SK-MEL-2 melanoma
RPMI-8226 leukemia = tested on: RPMI-8226 leukemia
KM20L2 colon = tested on: KM20L2 colon

| SMILES | TGI (LOX IMVI melanoma) | TGI (UACC-257 melanoma) | TGI (HOP-92 NSCLC) | TGI (SK-MEL-28 melanoma) | TGI (MOLT-4 leukemia) | TGI (U251 CNS) | TGI (EKVX NSCLC) | TGI (SK-MEL-2 melanoma) | TGI (RPMI-8226 leukemia) | TGI (KM20L2 colon) | GI50 (LOX IMVI melanoma) | GI50 (UACC-257 melanoma) | GI50 (RPMI-8226 leukemia) | GI50 (HOP-92 NSCLC) | GI50 (SK-MEL-28 melanoma) | GI50 (MOLT-4 leukemia) | GI50 (U251 CNS) | GI50 (KM20L2 colon) | GI50 (EKVX NSCLC) | GI50 (SK-MEL-2 melanoma) |
| --- | --- | --- | --- | --- | --- | --- | --- | --- | --- | --- | --- | --- | --- | --- | --- | --- | --- | --- | --- | --- |
| CN(CCNC(=O)c1cn(C)c2c1ccc1cc(Cl)ccc12)CCNC(=O)c1cn(C)c2c1ccc1cc(Cl)ccc12 | 34 µM | 67.4 µM | 18.8 µM | 10.9 µM | 11.3 µM | > 100 µM | 4.04 µM | 13.7 µM |  |  |  |  |  |  |  |  |  |  |  |  |
| O=NN(CCCl)C(=O)Nc1ccc(Cl)c(Cl)c1 | > 100 µM | > 100 µM | 97.8 µM | > 100 µM | > 100 µM | > 100 µM | > 100 µM | > 100 µM | > 100 µM | > 69.3 µM |  |  |  |  |  |  |  |  |  |  |
| OCCSCc1cc(Cl)cc(Cl)c1O | > 100 µM | > 100 µM | > 100 µM | > 100 µM | > 100 µM | > 100 µM | > 100 µM |  | > 100 µM |  |  |  |  |  |  |  |  |  |  |  |
| Nc1nccc2c1ncn2C1C=C(CO)C(O)C1O (stereo not given) | > 1000 µM | > 1000 µM | > 1000 µM | > 1000 µM | > 1000 µM | > 1000 µM |  | 99.1 µM | > 1000 µM |  | 335 µM | 3280 nM | 243 µM | > 1000 µM | 852 nM | 768 nM | 1610 nM |  |  |  |
| CC(C)(C)OC(=O)N1CCCC1C(=O)NCCNc1ccc(NCCNC(=O)C2CCCN2C(=O)OC(C)(C)C)c2c1C(=O)c1ccccc1C2=O (stereo not given) | 26.3 µM | 29.6 µM | 30.1 µM | 35.6 µM | > 100 µM | 44.6 µM | > 100 µM | 38.5 µM | 0.0538 µM |  |  |  |  |  |  |  |  |  |  |  |
| O=[P+](O)c1cccs1 | > 100 µM |  | > 100 µM | > 100 µM | > 100 µM | > 100 µM | > 100 µM |  | > 100 µM | > 100 µM |  |  |  |  |  |  |  |  |  |  |
| O=C1CSc2sc(=S)sc2S1 | > 100 µM | > 100 µM | > 100 µM | > 100 µM | > 100 µM | > 100 µM | > 100 µM | > 100 µM | > 100 µM | > 100 µM |  |  |  |  |  |  |  |  |  |  |
| CCOC(=O)c1c(SC)nc(-c2ccc(Cl)cc2)sc1=N | > 100 µM | > 100 µM | > 100 µM | > 100 µM | 94 µM | > 100 µM | 55.2 µM | 52.7 µM | > 100 µM |  |  |  |  |  |  |  |  |  |  |  |
| Cc1ccc(NC(=O)CC(=O)n2nc(-c3ccccc3)c(N=Nc3ccccc3C(=O)O)c2-c2ccccc2)cc1 | > 100 µM |  | > 100 µM | > 100 µM | > 100 µM |  | > 100 µM | > 100 µM | > 100 µM | > 100 µM |  |  |  |  |  |  |  |  |  |  |
| O=C1NC2(NC(=O)C1=O)Nc1ccccc1S2 | 37.8 µM | > 100 µM | > 100 µM | > 100 µM | > 92.5 µM | > 82.5 µM | > 100 µM | > 100 µM | 57.9 µM | > 100 µM |  |  |  |  |  |  |  |  |  |  |
| COc1cccc2c1C(=O)c1c(O)c3c(c(O)c1C2=O)C[C@@](O)(C(C)=O)C[C@@H]3OC1CC(N(C)C)C(O)C(C)O1 (stereo not given in full) |  |  |  |  |  |  |  | 0.308 µM and 0.0915 µM | 0.23 µM and 1.92 µM | 0.307 µM and 0.367 µM | 0.00387 µM | 43.5 nM and < 18.5 nM | < 0.0159 µM | 0.00454 µM and < 0.0147 µM | 47.5 nM | 4.95 nM | 45.1 nM | < 13.3 nM | 126 nM and 58.8 nM | < 11.3 nM |
| CC1C(O)[C@@]2(OC[C@@]34C(=O)CC5(O)[C@H](CCC6Cc7nc8c(nc7C[C@]65C)CC5CC[C@@H]6C7=C[C@H]9O[C@@]%10(O[C@@](C)(CO)C[C@@H]%10O)C(C)[C@@]9(O)[C@]7(C)[C@@H](O)CC6[C@]5(C)C8)C3=CC[C@H]4C2C)OC1(C)C (stereo not given in full) | 0.864 µM | 0.0212 µM | 3.25 µM |  | < 0.000355 µM | 0.101 µM | 0.499 µM | 0.0141 µM | < 0.000355 µM | 0.0669 µM |  |  |  |  |  |  |  |  |  |  |
| COC[C@@H]1Cc2cc(OC)c3c(c2[C@H](c2ccc(OC)c(OC)c2)[C@H]1COC)OCO3 | > 100 µM | > 100 µM | > 100 µM | > 100 µM | > 100 µM | > 100 µM | > 100 µM | > 100 µM |  | > 100 µM |  |  |  |  |  |  |  |  |  |  |
| Cc1cc(O)c2cc3c(O)c(O)ccc3cc2c1 | > 42.3 µM | 13.5 µM | > 22.8 µM | > 58.8 µM | 5.75 µM | 18.1 µM | 24.7 µM | 3.22 µM | > 100 µM |  |  |  |  |  |  |  |  |  |  |  |
